Data as given in patent publication EP4534085A1, “COMPOUNDS FOR USE IN METHODS OF TREATING CANCER” (Scorpion Therapeutics, Inc., priority 2023, dated 2025).
Read-outs that look alike come from different tables or passages of the source.

Columns and labels:
[1] = tested on: pEGFR (phosphorylated EGFR, Tyr1068); assay: pEGFR (Tyr1068) inhibition, AlphaLISA; settings: compared with gefitinib
Source text: (§1) A PC-9 derivative with an ex19del/C797S in cis double mutation was engineered by CRISPR knock-in.

NCI-H3255 (L858R) = assay: L858R human tumour xenograft, tumour growth inhibition; settings: 5-15 mg/kg BID; L858R human tumour xenografts in mice
Source text: as §1

[2] = Free CNS penetration (Kp,uu), rat brain slice method; assay type: in vivo, mice and rats; settings: oral dosing; rat brain slice method for free fraction in brain; osimertinib run in parallel as benchmark
Experimental: In order to characterise compound A in vitro and in vivo potency and selectivity for C797S-active double-mutant inhibitor vs. EGFR wild type, compound A was assessed in vitro and in vivo across a variety of engineered or endogenously occurring single (ex19del or L858R) or double (ex19del/C797S or L858R/C797S) mutant systems. In addition, the CNS exposure of compound A was also characterised using a gold-standard rat brain slice method to assess free exposure in brain tissue.
Compound A is an EGFR inhibitor of formula I(a). Compound A was tested across a panel of in vitro biochemical, cell signalling, and proliferation assays for potency against EGFR L858R and ex19del single mutants and/or the corresponding C797S double mutants. Additionally, compound A was tested for in vivo activity in mice bearing human NSCLC cell line xenografts NCI-H3255 (L858R) and PC-9 (ex19del), and in a PC-9-derived ex19del/C797S double mutant knock-in xenograft. Free CNS penetration (Kp,uu) was determined in nontumour bearing mice and rats. Osimertinib and/or gefitinib were used as benchmark molecules across assays.

pEGFR = assay: PC-9 (ex19del) PK/PD study, pEGFR pharmacodynamic readout; assay type: in vivo; settings: 15 mg/kg single dose, over a 12-hour BID dosing window
[3] = tested on: Ba/F3 lines expressing the noted EGFR constructs; assay: Ba/F3 proliferation inhibition (CellTiterGlo, 72 hr assay); assay type: cell-based
[4] = assay type: in vivo
BCRP = molecular target: T1, BCRP (Homo sapiens, UniProt Q9UNQ0); assay: MDCK-BCRP efflux; assay type: in vitro ADME; settings: dog, read-out: MDCK-BCRP ER
T1 construct: expressed in transfected cells; host or cells: MDCK
T1 sequence (Q9UNQ0 1-655): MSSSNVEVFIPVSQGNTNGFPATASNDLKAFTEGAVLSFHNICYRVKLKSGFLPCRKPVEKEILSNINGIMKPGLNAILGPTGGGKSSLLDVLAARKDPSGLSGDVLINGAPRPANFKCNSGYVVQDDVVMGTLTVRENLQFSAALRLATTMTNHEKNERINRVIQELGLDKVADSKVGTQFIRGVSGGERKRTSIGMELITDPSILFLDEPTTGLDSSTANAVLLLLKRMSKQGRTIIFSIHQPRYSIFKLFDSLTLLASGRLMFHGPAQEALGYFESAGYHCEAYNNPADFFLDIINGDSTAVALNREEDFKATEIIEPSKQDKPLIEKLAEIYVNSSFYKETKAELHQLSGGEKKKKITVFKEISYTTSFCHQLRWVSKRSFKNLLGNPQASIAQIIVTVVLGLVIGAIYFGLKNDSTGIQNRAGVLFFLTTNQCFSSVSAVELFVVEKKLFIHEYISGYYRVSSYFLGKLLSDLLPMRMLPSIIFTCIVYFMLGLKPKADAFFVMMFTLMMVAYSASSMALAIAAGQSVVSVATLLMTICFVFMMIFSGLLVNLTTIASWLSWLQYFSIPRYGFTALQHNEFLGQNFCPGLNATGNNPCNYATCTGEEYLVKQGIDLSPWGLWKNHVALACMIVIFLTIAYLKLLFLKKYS

PC-9 (ex19del) = assay: ex19del human tumour xenograft, tumour growth inhibition
Source text: as §1

[5] = tested on: PC-9 derivative with an ex19del/C797S in cis double mutation; assay: C797S double mutant knock-in xenograft, tumour growth inhibition; settings: 15 mg/kg BID, PC-9 ex19del/C797S xenograft
Source text: as §1

MDR1 = molecular target: T2, MDR1 (Homo sapiens, UniProt P08183); assay: MDCK-MDR1 efflux; assay type: in vitro ADME; settings: dog, read-out: MDCK-MDR1 ER
T2 construct: expressed in transfected cells; host or cells: MDCK

[6] = Caco-2 in vitro permeability (efflux ratio); assay type: in vitro ADME; settings: human, read-out: CAco-2 ER
human NSCLC cell lines = assay: Human cancer cell line proliferation inhibition (CellTiterGlo); assay type: cell-based

T2 sequence (P08183 whole entry): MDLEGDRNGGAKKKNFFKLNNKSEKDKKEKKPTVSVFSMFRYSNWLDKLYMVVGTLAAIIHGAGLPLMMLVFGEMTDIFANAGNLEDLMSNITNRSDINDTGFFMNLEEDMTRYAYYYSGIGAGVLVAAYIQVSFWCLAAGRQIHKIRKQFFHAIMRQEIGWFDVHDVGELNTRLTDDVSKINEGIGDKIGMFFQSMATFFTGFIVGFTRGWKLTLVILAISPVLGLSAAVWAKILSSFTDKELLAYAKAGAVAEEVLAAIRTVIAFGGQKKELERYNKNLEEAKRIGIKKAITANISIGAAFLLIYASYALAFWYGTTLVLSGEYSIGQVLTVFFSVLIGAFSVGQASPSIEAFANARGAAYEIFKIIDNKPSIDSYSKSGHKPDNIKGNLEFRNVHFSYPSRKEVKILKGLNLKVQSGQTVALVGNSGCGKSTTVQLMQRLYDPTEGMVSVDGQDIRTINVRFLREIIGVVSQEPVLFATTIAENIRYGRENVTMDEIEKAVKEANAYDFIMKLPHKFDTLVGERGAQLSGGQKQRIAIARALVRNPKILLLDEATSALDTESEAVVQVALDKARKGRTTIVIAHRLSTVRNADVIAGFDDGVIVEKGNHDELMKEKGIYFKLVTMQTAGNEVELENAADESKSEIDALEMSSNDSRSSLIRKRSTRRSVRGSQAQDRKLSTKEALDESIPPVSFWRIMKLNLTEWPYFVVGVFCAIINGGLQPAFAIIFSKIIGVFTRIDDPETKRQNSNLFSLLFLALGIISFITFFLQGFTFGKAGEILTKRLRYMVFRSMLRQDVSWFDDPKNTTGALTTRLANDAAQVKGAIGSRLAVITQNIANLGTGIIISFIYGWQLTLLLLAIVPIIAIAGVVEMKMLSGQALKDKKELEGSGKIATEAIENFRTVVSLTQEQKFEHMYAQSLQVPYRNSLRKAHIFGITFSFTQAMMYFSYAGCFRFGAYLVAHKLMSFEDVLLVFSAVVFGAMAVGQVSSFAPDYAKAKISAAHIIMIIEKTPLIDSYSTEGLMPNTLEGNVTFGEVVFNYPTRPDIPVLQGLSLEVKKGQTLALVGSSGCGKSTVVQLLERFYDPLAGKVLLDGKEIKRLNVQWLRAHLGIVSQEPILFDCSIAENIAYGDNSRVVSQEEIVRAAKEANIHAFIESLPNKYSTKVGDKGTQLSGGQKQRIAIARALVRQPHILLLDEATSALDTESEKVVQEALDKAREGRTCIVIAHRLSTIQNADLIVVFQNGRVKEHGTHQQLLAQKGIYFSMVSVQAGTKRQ

In the case of `COCC[C@H]1CNC(=O)c2c1[nH]c(-c1ccnc(C)n1)c2Nc1cccc(Cl)c1OC` [Compound A], the “selectivity for all tested EGFR mutant cell lines relative to EGFR wild-type cell line NCI-H2073 (pEGFR inhibition IC50)” value [1] is reported as “exceeded that of gefitinib”, the “tumour growth inhibition (TGI)” value (NCI-H3255 (L858R)) is reported as no less than 90% and the “brain exposure Kp,uu” value [2] is reported as “comparable to Osimertinib”. The inhibition at 15 mg/kg (pEGFR) was greater than 50%, the “inhibition of L858R, ex19del, L858R/C797S and ex19del/C797S mutants in proliferation assays” value ([3]; engineered Ba/F3) was “high picomolar to low nanomolar” and the “selectivity for all tested mutants relative to wild-type EGFR” value ([3]; engineered Ba/F3 cells) was greater than 150 x. The tolerability ([4]; 15 mg/kg BID or 50 mg/kg QD in mice) was “well tolerated”, the tolerability ([4]; 5-15 mg/kg BID, mice) was “well tolerated” and the efflux ratio at 1 µM (BCRP) was 1.17. The “tumour growth inhibition (TGI)” value (PC-9 (ex19del); 5-15 mg/kg BID, ex19del human tumour xenografts in mice) was no less than 90%, the “antitumour activity in EGFR single mutant xenografts” value (PC-9 (ex19del); EGFR single mutant xenografts (ex19del or L858R), 15 mg/kg BID or 50 mg/kg QD in mice) was “regression” and the “in vivo tumour growth inhibition in the presence of C797S” value [5] was “retained in vivo tumour growth inhibition”. For the same compound, the “in vivo tumour growth inhibition in the presence of C797S” value ([5]; listed as compound A) was “no drop-off in antitumour activity”, the efflux ratio at 1 µM (MDR1) was 0.95 and the efflux ratio at 1 µM [6] was 1.76. For the same compound, the “inhibition of L858R, ex19del, L858R/C797S and ex19del/C797S mutants in proliferation assays” value (human NSCLC cell lines; human NSCLC cell lines) was “high picomolar to low nanomolar” and the “selectivity for all tested mutants relative to wild-type EGFR” value (human NSCLC cell lines; human cancer cells) was greater than 150 x.
